# From patent US20210275518A1, “METHODS OF USING REBASTINIB IN THE TREATMENT OF DISORDERS” (Deciphera Pharmaceuticals, LLC, priority 2020, published 2021)
# Columns and labels:
# Type in all cases: in vivo, human
# [1] = Pharmacokinetics of rebastinib given with paclitaxel (Part 1); details: 50 mg BID and 100 mg BID in combination with paclitaxel
# Text: This is an open-label Phase 1b/2 multicenter study in patients with advanced or metastatic solid tumors where paclitaxel may be considered appropriate treatment. Rebastinib will be administered in combination with paclitaxel in repeated 28-day cycles to primarily assess the safety, tolerability and preliminary efficacy of the combination. Adverse events (AEs) will be assessed, and laboratory values, vital sign measurements, electrocardiograms (ECGs), ophthalmologic examinations, physical examinations and Eastern Cooperative Oncology Group (ECOG) Performance Status (PS) will be obtained to evaluate the safety and tolerability of rebastinib when administered in combination with paclitaxel. Pharmacokinetic (PK) and pharmacodynamic (PD) samples will be collected at pre-specified time points.
# [2] = test system: endometrial adenocarcinoma; test: Phase 1b/2 rebastinib + paclitaxel, Part 2 Cohort 4 (RECIST v1.1)
# Text: (§1) Upon determination of the RP2D, Part 2 is initiated to dose up to 165 evaluable patients using the RP2D across five indication-specific cohorts. A Simon's two-stage design is applied to Part 2 to further evaluate the safety, tolerability, and preliminary efficacy of rebastinib in combination with paclitaxel in triple-negative breast (Cohort 1), inflammatory breast (Cohort 2), ovarian (Cohort 3), endometrial adenocarcinoma (Cohort 4), and gynecologic carcinosarcoma (Cohort 5) cancers. Each cohort initially enrolls up to 18 evaluable patients in the first stage. Patients must receive at least 1 dose of the combination and have 1 post-baseline assessment (including assessment of clinical progression) or be discontinued prior to the postbaseline disease assessment due to an AE at least possibly related to rebastinib, to be considered evaluable. Tumor response is assessed according to Response Evaluation Criteria in Solid Tumors (RECIST) Version 1.1. The decision to enroll patients beyond the first stage is based on response assessments obtained after the first post-dose response assessment of the last patient enrolled in the first stage of a cohort. […] If ≤4 responses are seen in a cohort, the cohort will be terminated. If >4 responses are seen prior to the last evaluable patient in the first stage, expanding the cohort may be triggered earlier. Enrollment in each cohort will pause between the first and second stage of the Simon two-stage for evaluation of response. Patients will receive study treatment until they develop progressive disease, experience unacceptable toxicity, or withdraw consent.
# 21 patients were enrolled and completed at least Cycle 1, Day 1 (C1D1); 18 of which had post baseline measurements. 16 of the patients treated with rebastinib were at a starting dose of 100 mg BID and 80 mg/m^2 weekly paclitaxel, of which the doses of 11 were reduced to 50 mg BID and 80 mg/m^2 weekly paclitaxel, and 5 patients were at a starting dose of 50 mg BID and 80 mg/m^2 weekly paclitaxel. Of the 21 patients who completed at least Cycle 1, Day 1, the median age was 66 years, all received at least 1 prior line of paclitaxel/carboplatin, and 20 (95%) received at least 2 prior anti-cancer therapies. Of the 21 patients who completed at least Cycle 1, Day 1, the median duration of treatment was 16 weeks. Of the 21 patients, 18 were determined to be efficacy evaluable patients (mITT).
# At a third time point, 38 patients with endometrial cancer were enrolled in this portion of the study as a safety population. 16 of the patients treated with rebastinib were at a starting dose of 100 mg BID and 80 mg/m^2 weekly paclitaxel, of which the doses of 11 were reduced to 50 mg BID and 80 mg/m^2 weekly paclitaxel, and 22 patients were at a starting dose of 50 mg BID and 80 mg/m^2 weekly paclitaxel. 33 of the 38 patients met the met the modified intention-to-treat (mITT) criteria.
# [3] = test system: gynecologic carcinosarcoma; test: Phase 1b/2 rebastinib + paclitaxel, Part 2 Cohort 5 (RECIST v1.1); details: Cycle 5, Day 1
# Text: as §1, with “Enrollment in each cohort will pause between the first and second stage of the Simon two-stage for evaluation of response. Patients will receive study treatment until they develop progressive disease, experience unacceptable toxicity, or withdraw consent.” left out
# [4] = Cohort 4, time point 1, of the eight with stable disease at Cycle 3, Day 1, Cycle 5, Day 1
# [5] = Cohort 4, time point 1, rebastinib + paclitaxel, Cycle 3, Day 1
# [6] = Cohort 4, time point 2, 18 evaluable patients (mITT)
# [7] = Cohort 4, time point 3, of 3 patients who had received Lenvatinib/pembrolizumab
# [8] = Cohort 4, time point 4, 33 evaluable patients
# [9] = Table 2, Cohort 4, time point 3, mITT N = 33, patients (%)
# [10] = Table 2, Cohort 4, time point 3, n 11
smiles,measurement,setting,value
CNC(=O)c1cc(Oc2ccc(NC(=O)Nc3cc(C(C)(C)C)nn3-c3ccc4ncccc4c3)c(F)c2)ccn1 [rebastinib],Exposure to rebastinib,[1],dose proportional
same,"Patients with stable disease at Cycle 5, Day 1 and partial response at Cycle 8, Day 1","[2]; Cohort 4, time point 1, of the eight with stable disease at Cycle 3, Day 1",one
same,Patients with partial response,[2]; [4],one
same,Patients with stable disease,[2]; [4],four
same,Patients with partial response,"[2]; Cohort 4, time point 1, of the four with partial response at Cycle 3, Day 1, Cycle 5, Day 1",two
same,Patients with partial response,"[2]; Cohort 4, time point 1, of the four with partial response at Cycle 3, Day 1, both Cycle 5, Day 1 and Cycle 8, Day 1",two
same,Patients with partial response,[2]; [5],four
same,Patients with stable disease,[2]; [5],Eight
same,CBR at 8 weeks,[2]; [6],72%
same,ORR,[2]; [6],39%
same,Stable disease (SD) determinations,[2]; [6],6
same,Partial response (PR) determinations,"[2]; Cohort 4, time point 2, 18 evaluable patients (mITT), rebastinib 100 or 50 mg BID with weekly paclitaxel 80 mg/m^2",7
same,Clinical benefit rate at 16 weeks,"[2]; Cohort 4, time point 3, 33 patients mITT",53%
same,Objective response rate (ORR),"[2]; Cohort 4, time point 3, 33 patients mITT, rebastinib 100 or 50 mg BID with weekly paclitaxel 80 mg/m^2",33%
same,ORR across subgroups,"[2]; Cohort 4, time point 3, FIG. 7, subgroups by age, number of prior regimens, number of prior paclitaxel regimens, histology",consistent
same,Patients with partial response,[2]; [7],2
same,Patients with stable disease,[2]; [7],1
same,Outcome of serious adverse events related (or possibly) to rebastinib,"[2]; Cohort 4, time point 4",resolved after dose interruption
same,Clinical benefit at 8 weeks,[2]; [8],70%
same,Clinical benefit at 16 weeks,[2]; [8],54%
same,Confirmed PRs,[2]; [8],8
same,PRs,[2]; [8],11
same,ORR,"[2]; Cohort 4, time point 4, 33 evaluable patients, rebastinib 100 or 50 mg BID with weekly paclitaxel 80 mg/m^2",33%
same,KM median duration of response,"[2]; Cohort 4, time point 4, 90% CI: 2.7, NE, median follow up 4.4 months",7.4 months
same,Median PFS,"[2]; Cohort 4, time point 4, 90% CI: 3.7, 9.4",6.2 months
same,Best Overall Response: Confirmed Partial Response,[2]; [9],8 (24.2%)
same,Best Overall Response: Not Evaluable: discontinued prior to radiological assessment,[2]; [9],5 (15.2%)
same,Best Overall Response: Partial Response,[2]; [9],11 (33.3%)
same,Best Overall Response: Progressive Disease,[2]; [9],6 (18.2%)
same,Best Overall Response: Single Response Awaiting Confirmation,[2]; [9],1 (3.0%)
same,Best Overall Response: Stable Disease,[2]; [9],11 (33.3%)
same,Best Overall Response: Unconfirmed Single Response,[2]; [9],2 (6.1%)
same,"Duration of Response, Events (%)",[2]; [10],3 (27.3)
same,"Time to Response, Mean (SD)",[2]; [10],3.3 (1.7)
same,"Duration of Response, Kaplan-Meier Median (80% CI)","[2]; Table 2, Cohort 4, time point 3, n 11, NE: Not evaluated","7.4 (7.4, NE)"
same,Patients with partial response,[3],one
